Experimental data as given in ChEMBL document CHEMBL5291721, “A preclinical secondary pharmacology resource illuminates target-adverse drug reaction associations of marketed drugs” (Nat Commun, 2023).

Key:
Vasopressin V2 receptor = Vasopressin V2 receptor (Homo sapiens, UniProt P30518)
D(1A) dopamine receptor = D(1A) dopamine receptor (Homo sapiens, UniProt P21728); type: functional, cell-based
[1] = molecular target: Gamma-aminobutyric acid receptor subunit alpha-1 (Rattus norvegicus, UniProt P62813); type: functional
[2] = molecular target: Glutamate receptor ionotropic, NMDA 1 (Rattus norvegicus, UniProt P35439)
[3] = molecular target: T1, 5-hydroxytryptamine receptor 2C (Homo sapiens, UniProt P28335)
T1 sequence (P28335 whole entry): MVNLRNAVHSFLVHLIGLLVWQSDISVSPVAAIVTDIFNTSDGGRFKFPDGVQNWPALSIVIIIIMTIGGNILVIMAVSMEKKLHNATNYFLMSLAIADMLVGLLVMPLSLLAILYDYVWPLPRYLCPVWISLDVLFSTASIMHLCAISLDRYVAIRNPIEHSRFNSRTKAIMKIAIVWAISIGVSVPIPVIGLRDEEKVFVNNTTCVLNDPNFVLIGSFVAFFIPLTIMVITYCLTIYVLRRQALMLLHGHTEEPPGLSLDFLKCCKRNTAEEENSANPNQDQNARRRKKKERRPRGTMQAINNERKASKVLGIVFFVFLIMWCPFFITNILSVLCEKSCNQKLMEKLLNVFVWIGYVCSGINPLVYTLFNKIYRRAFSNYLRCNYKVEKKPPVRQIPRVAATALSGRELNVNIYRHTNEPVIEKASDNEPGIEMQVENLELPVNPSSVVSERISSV

Motilin receptor = Motilin receptor (Homo sapiens, UniProt O43193)
Glucocorticoid receptor = molecular target: T2, Glucocorticoid receptor (Homo sapiens, UniProt P04150)
T2 sequence (P04150 whole entry): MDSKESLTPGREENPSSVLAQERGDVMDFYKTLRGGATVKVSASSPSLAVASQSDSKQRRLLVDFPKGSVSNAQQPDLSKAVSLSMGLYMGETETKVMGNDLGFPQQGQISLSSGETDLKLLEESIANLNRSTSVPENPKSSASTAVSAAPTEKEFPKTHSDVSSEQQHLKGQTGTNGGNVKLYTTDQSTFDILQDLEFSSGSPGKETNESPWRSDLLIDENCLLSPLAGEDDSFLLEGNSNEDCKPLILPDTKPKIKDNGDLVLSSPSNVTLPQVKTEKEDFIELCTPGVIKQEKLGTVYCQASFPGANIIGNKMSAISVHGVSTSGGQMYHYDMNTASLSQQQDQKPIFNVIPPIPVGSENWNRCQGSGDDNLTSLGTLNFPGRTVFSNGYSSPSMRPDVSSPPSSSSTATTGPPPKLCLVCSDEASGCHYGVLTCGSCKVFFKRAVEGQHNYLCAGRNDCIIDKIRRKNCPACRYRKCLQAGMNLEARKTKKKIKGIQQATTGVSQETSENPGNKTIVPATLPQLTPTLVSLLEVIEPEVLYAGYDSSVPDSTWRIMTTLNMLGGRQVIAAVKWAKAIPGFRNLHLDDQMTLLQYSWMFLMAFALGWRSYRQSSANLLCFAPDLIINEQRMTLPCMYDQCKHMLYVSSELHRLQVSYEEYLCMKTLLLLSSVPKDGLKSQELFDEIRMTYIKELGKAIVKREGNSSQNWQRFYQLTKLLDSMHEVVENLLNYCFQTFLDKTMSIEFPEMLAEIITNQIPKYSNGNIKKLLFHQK

[4] = molecular target: Delta-type opioid receptor (Homo sapiens, UniProt P41143)
[5] = molecular target: 3',5'-cyclic-AMP phosphodiesterase 4D (Homo sapiens, UniProt Q08499); type: functional
[6] = molecular target: Sodium-dependent dopamine transporter (Homo sapiens, UniProt Q01959)
[7] = molecular target: T3, Amine oxidase [flavin-containing] A (Homo sapiens, UniProt P21397); type: functional
T3 sequence (P21397 whole entry): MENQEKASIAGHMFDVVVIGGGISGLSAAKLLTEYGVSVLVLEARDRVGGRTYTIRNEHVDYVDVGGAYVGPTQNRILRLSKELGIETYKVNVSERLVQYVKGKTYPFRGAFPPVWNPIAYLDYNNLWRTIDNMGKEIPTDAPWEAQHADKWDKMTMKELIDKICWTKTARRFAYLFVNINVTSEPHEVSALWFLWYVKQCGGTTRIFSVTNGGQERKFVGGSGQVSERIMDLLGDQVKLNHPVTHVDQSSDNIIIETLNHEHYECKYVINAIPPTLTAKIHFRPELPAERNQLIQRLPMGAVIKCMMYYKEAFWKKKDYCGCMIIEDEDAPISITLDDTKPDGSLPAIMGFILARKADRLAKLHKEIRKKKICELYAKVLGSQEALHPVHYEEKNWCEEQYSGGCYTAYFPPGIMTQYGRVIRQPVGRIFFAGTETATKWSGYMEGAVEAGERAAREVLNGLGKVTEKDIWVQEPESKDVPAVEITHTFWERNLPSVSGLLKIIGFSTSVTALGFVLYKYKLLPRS

[8] = molecular target: T4, Alpha-1A adrenergic receptor (Homo sapiens, UniProt P35348); type: functional, cell-based
T4 sequence (P35348 whole entry): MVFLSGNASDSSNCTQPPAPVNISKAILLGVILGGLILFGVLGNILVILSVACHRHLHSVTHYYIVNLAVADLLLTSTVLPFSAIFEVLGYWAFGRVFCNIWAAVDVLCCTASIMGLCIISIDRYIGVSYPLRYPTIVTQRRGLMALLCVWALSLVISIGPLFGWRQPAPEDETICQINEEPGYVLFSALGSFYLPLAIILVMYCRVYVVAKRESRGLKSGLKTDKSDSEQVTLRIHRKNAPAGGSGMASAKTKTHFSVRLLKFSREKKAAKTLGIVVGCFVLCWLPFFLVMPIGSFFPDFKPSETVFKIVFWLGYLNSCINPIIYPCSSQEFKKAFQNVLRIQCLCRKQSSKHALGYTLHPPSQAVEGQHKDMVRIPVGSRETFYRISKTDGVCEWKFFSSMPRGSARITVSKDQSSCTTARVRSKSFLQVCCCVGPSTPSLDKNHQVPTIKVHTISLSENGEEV
Note: assay procedure not described here.

D(1A) dopamine receptor, sequence (P21728 whole entry): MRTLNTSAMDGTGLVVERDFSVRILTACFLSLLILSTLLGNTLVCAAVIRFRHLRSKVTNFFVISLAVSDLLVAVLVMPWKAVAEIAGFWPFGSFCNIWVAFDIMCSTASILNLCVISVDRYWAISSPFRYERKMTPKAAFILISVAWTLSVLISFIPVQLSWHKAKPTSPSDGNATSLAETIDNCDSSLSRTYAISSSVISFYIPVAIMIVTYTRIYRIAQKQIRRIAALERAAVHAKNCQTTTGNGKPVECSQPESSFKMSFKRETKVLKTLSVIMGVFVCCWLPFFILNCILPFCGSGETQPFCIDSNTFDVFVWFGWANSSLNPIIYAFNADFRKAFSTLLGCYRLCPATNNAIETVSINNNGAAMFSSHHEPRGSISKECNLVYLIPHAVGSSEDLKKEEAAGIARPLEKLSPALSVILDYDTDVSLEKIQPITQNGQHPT
Gamma-aminobutyric acid receptor subunit alpha-1, sequence (P62813 whole entry): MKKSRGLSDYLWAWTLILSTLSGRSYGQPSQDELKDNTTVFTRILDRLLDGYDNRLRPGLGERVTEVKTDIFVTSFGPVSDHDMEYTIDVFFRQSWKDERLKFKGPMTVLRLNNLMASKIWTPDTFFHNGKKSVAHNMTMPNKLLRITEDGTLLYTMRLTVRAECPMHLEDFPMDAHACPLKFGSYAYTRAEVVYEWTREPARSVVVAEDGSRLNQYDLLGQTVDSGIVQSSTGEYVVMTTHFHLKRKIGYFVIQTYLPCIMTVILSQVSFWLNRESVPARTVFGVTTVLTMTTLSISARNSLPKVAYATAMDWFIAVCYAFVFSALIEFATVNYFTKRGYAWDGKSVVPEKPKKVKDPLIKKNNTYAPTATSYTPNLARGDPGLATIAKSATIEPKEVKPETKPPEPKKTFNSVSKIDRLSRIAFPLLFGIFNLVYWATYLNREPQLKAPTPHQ
3',5'-cyclic-AMP phosphodiesterase 4D, sequence (Q08499 whole entry): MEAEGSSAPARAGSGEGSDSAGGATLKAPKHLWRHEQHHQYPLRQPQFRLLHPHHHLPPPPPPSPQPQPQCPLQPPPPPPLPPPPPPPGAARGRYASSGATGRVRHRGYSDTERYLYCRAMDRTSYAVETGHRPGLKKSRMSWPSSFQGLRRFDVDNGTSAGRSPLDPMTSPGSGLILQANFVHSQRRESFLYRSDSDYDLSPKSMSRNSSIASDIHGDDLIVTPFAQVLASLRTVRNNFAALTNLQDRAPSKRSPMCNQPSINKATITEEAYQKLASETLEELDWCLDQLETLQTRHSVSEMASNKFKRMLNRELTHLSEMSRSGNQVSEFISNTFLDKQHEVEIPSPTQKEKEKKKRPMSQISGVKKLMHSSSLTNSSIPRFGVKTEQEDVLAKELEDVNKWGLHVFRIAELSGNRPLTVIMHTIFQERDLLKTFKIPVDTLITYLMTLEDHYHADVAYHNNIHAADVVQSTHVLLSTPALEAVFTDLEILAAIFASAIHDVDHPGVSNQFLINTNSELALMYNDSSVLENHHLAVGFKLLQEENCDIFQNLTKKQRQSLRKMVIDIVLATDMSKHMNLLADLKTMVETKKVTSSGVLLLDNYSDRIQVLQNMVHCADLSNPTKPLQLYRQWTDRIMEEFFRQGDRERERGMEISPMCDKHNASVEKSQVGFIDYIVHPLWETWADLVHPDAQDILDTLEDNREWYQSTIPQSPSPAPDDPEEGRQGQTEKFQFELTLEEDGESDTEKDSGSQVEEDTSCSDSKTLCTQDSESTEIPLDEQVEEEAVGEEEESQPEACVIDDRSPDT
Delta-type opioid receptor, sequence (P41143 whole entry): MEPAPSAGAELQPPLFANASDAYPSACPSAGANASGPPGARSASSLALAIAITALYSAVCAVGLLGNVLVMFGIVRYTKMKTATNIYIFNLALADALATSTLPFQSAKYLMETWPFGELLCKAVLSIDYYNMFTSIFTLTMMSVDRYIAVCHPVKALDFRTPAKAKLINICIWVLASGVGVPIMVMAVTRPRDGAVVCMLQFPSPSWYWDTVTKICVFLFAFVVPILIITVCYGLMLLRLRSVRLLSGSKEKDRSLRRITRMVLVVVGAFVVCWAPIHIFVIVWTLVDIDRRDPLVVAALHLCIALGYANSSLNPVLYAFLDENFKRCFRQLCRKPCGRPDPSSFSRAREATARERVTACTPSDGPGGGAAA
Vasopressin V2 receptor, sequence (P30518 whole entry): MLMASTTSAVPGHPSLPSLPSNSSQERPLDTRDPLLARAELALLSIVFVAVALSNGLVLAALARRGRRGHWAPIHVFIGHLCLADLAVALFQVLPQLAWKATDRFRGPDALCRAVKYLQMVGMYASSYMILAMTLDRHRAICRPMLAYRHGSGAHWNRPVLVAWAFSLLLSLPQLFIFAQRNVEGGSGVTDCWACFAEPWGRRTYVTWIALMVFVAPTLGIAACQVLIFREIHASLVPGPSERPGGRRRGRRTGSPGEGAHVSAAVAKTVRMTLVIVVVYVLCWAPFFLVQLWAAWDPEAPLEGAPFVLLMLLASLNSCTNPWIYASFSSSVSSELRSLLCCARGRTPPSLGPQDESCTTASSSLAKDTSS
Motilin receptor, sequence (O43193 whole entry): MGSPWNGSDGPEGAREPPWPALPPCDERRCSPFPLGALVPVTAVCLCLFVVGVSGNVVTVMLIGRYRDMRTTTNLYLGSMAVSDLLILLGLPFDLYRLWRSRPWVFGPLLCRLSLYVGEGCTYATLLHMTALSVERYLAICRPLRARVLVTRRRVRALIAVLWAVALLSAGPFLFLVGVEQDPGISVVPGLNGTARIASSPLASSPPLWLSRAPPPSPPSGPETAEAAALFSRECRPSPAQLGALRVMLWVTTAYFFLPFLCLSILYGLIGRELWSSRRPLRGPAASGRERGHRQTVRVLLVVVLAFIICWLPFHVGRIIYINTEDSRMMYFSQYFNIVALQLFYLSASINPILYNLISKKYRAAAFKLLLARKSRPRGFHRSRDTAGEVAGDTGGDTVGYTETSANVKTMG
Sodium-dependent dopamine transporter, sequence (Q01959 whole entry): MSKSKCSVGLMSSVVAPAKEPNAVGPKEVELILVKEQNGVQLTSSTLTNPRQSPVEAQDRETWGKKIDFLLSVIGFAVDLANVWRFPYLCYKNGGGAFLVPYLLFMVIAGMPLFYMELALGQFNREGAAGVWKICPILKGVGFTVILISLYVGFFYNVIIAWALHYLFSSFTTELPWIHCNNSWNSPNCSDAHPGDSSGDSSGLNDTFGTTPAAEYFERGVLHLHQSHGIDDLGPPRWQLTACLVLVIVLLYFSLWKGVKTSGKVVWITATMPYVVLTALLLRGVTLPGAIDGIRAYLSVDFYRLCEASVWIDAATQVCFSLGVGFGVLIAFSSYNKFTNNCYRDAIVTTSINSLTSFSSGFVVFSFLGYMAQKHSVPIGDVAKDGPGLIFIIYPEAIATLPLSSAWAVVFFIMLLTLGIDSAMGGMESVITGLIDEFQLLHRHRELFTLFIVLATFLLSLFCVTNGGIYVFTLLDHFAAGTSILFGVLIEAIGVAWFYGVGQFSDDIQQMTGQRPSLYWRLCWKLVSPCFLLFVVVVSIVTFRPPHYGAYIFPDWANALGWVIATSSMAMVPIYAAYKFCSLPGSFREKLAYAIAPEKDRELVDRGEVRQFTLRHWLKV

Compound | AC50 (Vasopressin V2 receptor) [µM] | AC50 (D(1A) dopamine receptor) [µM] | AC50 [1] [µM] | AC50 [2] [µM] | AC50 [3] [µM] | AC50 (Motilin receptor) [µM] | AC50 (Glucocorticoid receptor) [µM] | AC50 [4] [µM] | AC50 [5] [µM] | AC50 [6] [µM] | AC50 [7] [µM] | AC50 [8] [µM]
NC(=O)CN1CC(O)CC1=O (stereo unspecified) [OXIRACETAM] | > 30 | > 30 | > 30 | > 30 | > 30 | > 30 | > 30 | > 30 | > 30 | > 30 | > 30 | > 30
COc1ccc(CCNCC(O)COc2cccc(C)c2)cc1OC (stereo unspecified) [BEVANTOLOL] | > 10 | > 30 | > 10 | > 10 | > 30 | > 10 | > 10 | > 30 | > 30 | 16.2 | > 10 | 12
Cc1c(OCC(F)(F)F)ccnc1C[S+]([O-])c1nc2ccccc2[nH]1 (stereo unspecified) [LANSOPRAZOLE] | > 30 | > 10 | > 10 | > 10 | > 10 | > 10 | > 30 | 8.3 | > 10 | > 10 | > 10 | > 30
